Measurements as given in patent US12435044B2, “Pyridazinone herbicides and pyridazinone intermediates used to prepare a herbicide” (FMC Corporation, priority 2018, dated 2025).

Experiments:
Type in all cases: in vivo
[1] = tested on: blackgrass (Alopecurus myosuroides); experiment: Test A postemergence greenhouse test
Text: (§1) Seeds of plant species selected from barnyardgrass (Echinochloa crus-galli), kochia (Kochia scoparia), ragweed (common ragweed, Ambrosia elatior), ryegrass, Italian (Lolium multiflorum), foxtail, giant (Setaria faberii), foxtail, green (Setaria viridis) and pigweed (Amaranthus retroflexus) were planted into a blend of loam soil and sand and treated preemergence with a directed soil spray using test chemicals formulated in a non-phytotoxic solvent mixture which included a surfactant.
(§2) At the same time, plants selected from these weed species and also wheat (Triticum aestivum), corn (Zea mays), blackgrass (Alopecurus myosuroides) and galium (catchweed bedstraw, Galium aparine) were planted in pots containing the same blend of loam soil and sand and treated with postemergence applications of test chemicals formulated in the same manner. Plants ranged in height from 2 to 10 cm and were in the one- to two-leaf stage for the postemergence treatment. Treated plants and untreated controls were maintained in a greenhouse for approximately 10 d, after which time all treated plants were compared to untreated controls and visually evaluated for injury. Plant response ratings, summarized in Table A, are based on a 0 to 100 scale where 0 is no effect and 100 is complete control. A dash (-) response means no test result.

[2] = tested on: galium (catchweed bedstraw, Galium aparine); experiment: Test A postemergence greenhouse test
Text: as §1, §2

[3] = tested on: barnyardgrass (Echinochloa crus-galli); experiment: Test C pre-/postemergence greenhouse test; settings: scale 0 to 100
Procedure, shortened: (§3)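 Formulation: non-phytotoxic solvent mixture including surfactant. Preemergence on seeds in silt loam; postemergence on plants 2 to 18 cm tall in peat-based potting medium. Controls held alongside; visual evaluation at 13 to 21 d, 0 = no effect, 100 = complete control.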

[4] = tested on: blackgrass (Alopecurus myosuroides); experiment: Test C pre-/postemergence greenhouse test; settings: scale 0 to 100
Procedure, shortened: as §3

corn (Zea mays) = experiment: Test C pre-/postemergence greenhouse test; settings: scale 0 to 100
Procedure, shortened: as §3

kochia (Kochia scoparia) = experiment: Test C pre-/postemergence greenhouse test; settings: scale 0 to 100
Procedure, shortened: as §3

[5] = tested on: lambsquarters (Chenopodium album); experiment: Test C pre-/postemergence greenhouse test; settings: scale 0 to 100
Procedure, shortened: as §3

[6] = tested on: morningglory (Ipomoea coccinea); experiment: Test C pre-/postemergence greenhouse test; settings: scale 0 to 100
Procedure, shortened: as §3

[7] = tested on: nutsedge, yellow (Cyperus esculentus); experiment: Test C pre-/postemergence greenhouse test; settings: scale 0 to 100
Procedure, shortened: as §3

[8] = tested on: ragweed (common ragweed, Ambrosia elatior); experiment: Test C pre-/postemergence greenhouse test; settings: scale 0 to 100
Procedure, shortened: as §3

[9] = tested on: surinam grass (Brachiaria decumbens); experiment: Test C pre-/postemergence greenhouse test; settings: scale 0 to 100
Procedure, shortened: as §3

[10] = tested on: waterhemp (common waterhemp, Amaranthus rudis); experiment: Test C pre-/postemergence greenhouse test; settings: scale 0 to 100
Procedure, shortened: as §3

Cc1cc(Cl)c2ccccc2c1-c1c(O)c(Cl)nn(C)c1=O [Cpd. No. 65]
90: Plant response rating (0 to 100 scale) ([1]; 31 g ai/ha) | Plant response rating, Blackgrass ([4]; Postemergence, 31 g ai/ha) | Plant response rating, Blackgrass ([4]; Postemergence, 62 g ai/ha) | Plant response rating, Kochia (kochia (Kochia scoparia); Preemergence, 125 g ai/ha) | Plant response rating, Lambsquarters ([5]; Postemergence, 16 g ai/ha) | Plant response rating, Lambsquarters ([5]; Preemergence, 62 g ai/ha) | Plant response rating, Morningglory ([6]; Preemergence, 31 g ai/ha) | Plant response rating, Surinam Grass ([9]; Postemergence, 16 g ai/ha) | Plant response rating, Surinam Grass ([9]; Postemergence, 31 g ai/ha) | Plant response rating, Waterhemp ([10]; Postemergence, 31 g ai/ha)
5: Plant response rating, Blackgrass ([4]; Preemergence, 31 g ai/ha) | Plant response rating, Corn (corn (Zea mays); Preemergence, 62 g ai/ha)
98: Plant response rating, Lambsquarters ([5]; Postemergence, 31 g ai/ha) | Plant response rating, Morningglory ([6]; Postemergence, 16 g ai/ha) | Plant response rating, Morningglory ([6]; Preemergence, 62 g ai/ha) | Plant response rating, Ragweed ([8]; Postemergence, 16 g ai/ha) | Plant response rating, Ragweed ([8]; Postemergence, 62 g ai/ha) | Plant response rating, Ragweed ([8]; Postemergence, 125 g ai/ha) | Plant response rating, Ragweed ([8]; Preemergence, 62 g ai/ha)
70: Plant response rating, Kochia (kochia (Kochia scoparia); Preemergence, 31 g ai/ha) | Plant response rating, Surinam Grass ([9]; Preemergence, 62 g ai/ha)
65: Plant response rating, Corn (corn (Zea mays); Postemergence, 62 g ai/ha) | Plant response rating, Kochia (kochia (Kochia scoparia); Postemergence, 62 g ai/ha) | Plant response rating, Nutsedge, Yellow ([7]; Postemergence, 62 g ai/ha) | Plant response rating, Ragweed ([8]; Preemergence, 61 g ai/ha)
10: Plant response rating, Barnyardgrass ([3]; Preemergence, 61 g ai/ha) | Plant response rating, Blackgrass ([4]; Preemergence, 61 g ai/ha) | Plant response rating, Nutsedge, Yellow ([7]; Preemergence, 61 g ai/ha)
85: Plant response rating, Barnyardgrass ([3]; Postemergence, 31 g ai/ha) | Plant response rating, Blackgrass ([4]; Preemergence, 125 g ai/ha) | Plant response rating, Kochia (kochia (Kochia scoparia); Preemergence, 62 g ai/ha) | Plant response rating, Waterhemp ([10]; Preemergence, 62 g ai/ha)
40: Plant response rating, Corn (corn (Zea mays); Postemergence, 31 g ai/ha) | Plant response rating, Kochia (kochia (Kochia scoparia); Postemergence, 16 g ai/ha)
50: Plant response rating, Nutsedge, Yellow ([7]; Postemergence, 16 g ai/ha)
60: Plant response rating, Barnyardgrass ([3]; Preemergence, 62 g ai/ha)
15: Plant response rating, Corn (corn (Zea mays); Preemergence, 125 g ai/ha) | Plant response rating, Surinam Grass ([9]; Preemergence, 61 g ai/ha)
95: Plant response rating, Blackgrass ([4]; Postemergence, 125 g ai/ha) | Plant response rating, Morningglory ([6]; Preemergence, 125 g ai/ha) | Plant response rating, Nutsedge, Yellow ([7]; Postemergence, 125 g ai/ha) | Plant response rating, Nutsedge, Yellow ([7]; Preemergence, 125 g ai/ha) | Plant response rating, Ragweed ([8]; Preemergence, 31 g ai/ha) | Plant response rating, Surinam Grass ([9]; Postemergence, 62 g ai/ha) | Plant response rating, Surinam Grass ([9]; Postemergence, 125 g ai/ha) | Plant response rating, Waterhemp ([10]; Postemergence, 62 g ai/ha) | Plant response rating, Waterhemp ([10]; Postemergence, 125 g ai/ha) | Plant response rating, Waterhemp ([10]; Preemergence, 125 g ai/ha)
20: Plant response rating, Barnyardgrass ([3]; Preemergence, 31 g ai/ha) | Plant response rating, Kochia (kochia (Kochia scoparia); Preemergence, 61 g ai/ha) | Plant response rating, Lambsquarters ([5]; Preemergence, 61 g ai/ha)
55: Plant response rating, Blackgrass ([4]; Postemergence, 16 g ai/ha) | Plant response rating, Blackgrass ([4]; Preemergence, 62 g ai/ha) | Plant response rating, Kochia (kochia (Kochia scoparia); Postemergence, 31 g ai/ha) | Plant response rating, Morningglory ([6]; Preemergence, 61 g ai/ha) | Plant response rating, Surinam Grass ([9]; Preemergence, 31 g ai/ha)
30: Plant response rating, Corn (corn (Zea mays); Postemergence, 16 g ai/ha)
80: Plant response rating, Barnyardgrass ([3]; Postemergence, 16 g ai/ha) | Plant response rating, Lambsquarters ([5]; Preemergence, 31 g ai/ha) | Plant response rating, Waterhemp ([10]; Postemergence, 16 g ai/ha) | Plant response rating, Waterhemp ([10]; Preemergence, 61 g ai/ha)
0: Plant response rating, Corn (corn (Zea mays); Preemergence, 31 g ai/ha) | Plant response rating, Corn (corn (Zea mays); Preemergence, 61 g ai/ha)
75: Plant response rating, Barnyardgrass ([3]; Preemergence, 125 g ai/ha) | Plant response rating, Corn (corn (Zea mays); Postemergence, 125 g ai/ha) | Plant response rating, Kochia (kochia (Kochia scoparia); Postemergence, 125 g ai/ha) | Plant response rating, Nutsedge, Yellow ([7]; Postemergence, 31 g ai/ha) | Plant response rating, Nutsedge, Yellow ([7]; Preemergence, 31 g ai/ha) | Plant response rating, Nutsedge, Yellow ([7]; Preemergence, 62 g ai/ha) | Plant response rating, Waterhemp ([10]; Preemergence, 31 g ai/ha)
100: Plant response rating (0 to 100 scale) ([1]; 125 g ai/ha) | Plant response rating (0 to 100 scale) ([2]; 31 g ai/ha) | Plant response rating (0 to 100 scale) ([2]; 125 g ai/ha) | Plant response rating, Barnyardgrass ([3]; Postemergence, 62 g ai/ha) | Plant response rating, Barnyardgrass ([3]; Postemergence, 125 g ai/ha) | Plant response rating, Lambsquarters ([5]; Postemergence, 62 g ai/ha) | Plant response rating, Lambsquarters ([5]; Postemergence, 125 g ai/ha) | Plant response rating, Lambsquarters ([5]; Preemergence, 125 g ai/ha) | Plant response rating, Morningglory ([6]; Postemergence, 31 g ai/ha) | Plant response rating, Morningglory ([6]; Postemergence, 62 g ai/ha) | Plant response rating, Morningglory ([6]; Postemergence, 125 g ai/ha) | Plant response rating, Ragweed ([8]; Postemergence, 31 g ai/ha) | Plant response rating, Ragweed ([8]; Preemergence, 125 g ai/ha) | Plant response rating, Surinam Grass ([9]; Preemergence, 125 g ai/ha)
